In patent US20050014835A1, “Agents for Treating Diseases Caused by Nonsense Mutations” (priority 2001, published 2005):

How the values were obtained:
[1] = type: in vivo; settings: highest dose 1.2×10^−3 mol/kg/day (100×)
Description: In order to measure changes in body weight due to drug administration, male mdx mice (seven weeks old, four for each dose) were injected daily with NM at 1.2×10^−5 mol/kg (1× the effective dose), 1.2×10^−4 mol/kg (10×), 6.0×10^−4 mol/kg (50×), or 1.2×10^−3 mol/kg (100×) for 14 days. The body weight of each mouse was measured everyday. Other mdx mice (seven weeks old, two for each dose) were injected with GM (1.2×10^−3 mol/kg [100×]) as a control test. Body weight was also measured every day.

TA muscle fibers = assay: Evans Blue Dye staining of degenerating muscle fibers in drug-treated mdx mice; type: in vivo; settings: 1.2×10^−5 mol/kg/day subcutaneously for two weeks, FIG. 2
Description: (§1) Mdx mice were used as a dystrophy mouse model. NM was dissolved in PBS and Millipore-filtered just before injection, in order to avoid degradation during storage in solution. Mdx mice (male, seven week-old, six for each dose) were injected subcutaneously with an NM solution (137 mM NaCl, 2.68 mM KCl, 8.10 mM […], and 1.47 mM KH2PO4) prepared using PBS, at half the concentration (1.2×10^−5 mol/kg) of the solution in the GM experiment by Barton-Davis et al. (Barton-Davis, E. R., Cordiner, L. Shoturma, D. I., Leiland, S. E., Sweeney, H. L. (1999) Aminoglycoside antibiotics restore dystrophin function to skeletal muscles of mdx mice. J. Clin. Invest. 104, 375-381) every day for two weeks. Control mdx mice (n=6) and C57BL/10 (B10, n=6) mice were injected with PBS (0.1 ml) alone, every day for two weeks.
(§2) After injection, immunofluorescence and Evans Blue staining were performed to detect dystrophin. Immunofluoresce staining was carried out as follows using antibodies against the C-terminus of dystrophin. Animals were sacrificed using an overdose of ether gas. The tibialis anterior (TA) muscles were removed and frozen in melting isopentane for immunohistochemistry. Then, 7 μm transverse cryosections were prepared. […] After labeling with secondary antibodies, dystrophin was detected by fluorescence microscopy, based on fluorescence emission. […]

dystrophin [2] = assay: Immunofluorescence staining of dystrophin in TA muscle of drug-treated mdx mice; type: in vivo
Description: as §1, §2

dystrophin [3] = assay: Immunofluorescence staining of dystrophin in cultured mdx-sk myotubes; type: cell-based, mdx mouse; settings: 50 μg/ml, seven days
Text: The SV40T immortalized mdx satellite cell line, mdx-sk, was newly established from the mdx mouse to test the dystrophin restoring level in cultured mdx skeletal muscle cells. The mdx-sk line was established by introducing a retroviral vector carrying a cDNA for the temperature-sensitive form of the Simian Virus 40 large T antigen (a kind gift from Dr. Drinkwater) to a primary culture of mdx myoblasts obtained from the mdx mice. The retrovirus was produced using the packaging cell line, Plat-E, as previously described (Morita, S., Kojima, T., Kitamura, T. (2000) Plat-E: an efficient andstable system for transient packaging of retroviruses. Gene Therapy 7, 1063-1066). The cell line was cultured and maintained in Dulbecco's Modified Eagle Medium (DMEM)-high glucose (4,500 mg/l) supplemented with 20% fetal calf serum at 32.5° C. in a CO2 incubator. To induce muscle differentiation, the culture medium was changed to a differentiation medium (10% horse serum in Eagle MEM) and the culture temperature was shifted to 39.5° C. […]
In order to examine whether NM can restore dystrophin expression in the mdx-sk cells established as described above, NM was added at a concentration of 50 μg/ml or 100 μg/ml to a differentiation medium of myotubes cultured for seven days, and then culture was continued for another seven days. […] The cells were then observed under a fluorescence microscope.

dystrophin [4] = assay: Immunoblotting of dystrophin in cultured mdx-sk myotubes; type: cell-based, mdx mouse; settings: 100 μg/ml, seven days
Text: The SV40T immortalized mdx satellite cell line, mdx-sk, was newly established from the mdx mouse to test the dystrophin restoring level in cultured mdx skeletal muscle cells. The mdx-sk line was established by introducing a retroviral vector carrying a cDNA for the temperature-sensitive form of the Simian Virus 40 large T antigen (a kind gift from Dr. Drinkwater) to a primary culture of mdx myoblasts obtained from the mdx mice. The retrovirus was produced using the packaging cell line, Plat-E, as previously described (Morita, S., Kojima, T., Kitamura, T. (2000) Plat-E: an efficient andstable system for transient packaging of retroviruses. Gene Therapy 7, 1063-1066). The cell line was cultured and maintained in Dulbecco's Modified Eagle Medium (DMEM)-high glucose (4,500 mg/l) supplemented with 20% fetal calf serum at 32.5° C. in a CO2 incubator. To induce muscle differentiation, the culture medium was changed to a differentiation medium (10% horse serum in Eagle MEM) and the culture temperature was shifted to 39.5° C.
After induction of differentiation, the cells were cultured, and NM (50 μg/ml (2.0×10^−4 mol/kg) or 100 μg/ml (4.0×10^−4 mol/kg) in a differentiation medium solution) was added to the culture. Then, the cells were allowed to differentiate by culturing in the medium without an antibiotic for seven days. […]

dystrophin [5] = assay: Immunoprecipitation and immunoblotting of dystrophin in muscles of NM-treated mdx mice; type: in vivo
Description: The left hind leg muscle (600 mg), the diaphragm (100 mg), and the cardiac muscle (100 mg) were collected from NM-treated mdx mice, NM-untreated mdx mice, and B10 mice as described above. Each of the specimens was homogenized in 15 ml of a homogenizing solution (pH 7.2) (pyrophosphate mixture, 20 mM Na4P2O7, 20 mM NaH2PO4, and 1 mM MgCl2, pH 7.1) containing 10% sucrose and 0.5 mM EDTA. The homogenization was carried out with a Teflon homogenizer at maximal speed for one minute (Mitchell, R. D., Palade, P., and Fleicher, S. (1983) Purification of morphologically intact triad structures from skeletal muscle. J. Cell Biol. 96, 1008-1016; Yoshida, M., Suzuki, A., Shimizu, T., and Ozawa, E. (1992) Proteinase-sensitive sites on isolated rabbit dystrophin. J. Biochem. 112, 433-439). The homogenate was centrifuged in an RA rotor (KUBOTA) at 9,000 rpm for 15 minutes. […]
Immunoprecipitation was performed as described by Abe et al. (Abe, M., Saitoh, O., Nakata, H., Yoda, A., and Matsuda, R. (1996) Expression of neurofilament proteins in proliferating C2C12 mouse skeletalmuscle cells. Exp. Cell Res. 229, 48-59) using muscle protein sample preparations prepared from mdx mice and B10 mice as described above. […] After boiling, the supernatant was collected, and the protein concentration thereof was determined by microburette method. […]

[6] = Ototoxicity assay: hearing threshold by auditory brain stem response; type: in vivo, Mdx mouse; settings: 1.2×10^−4 mol/kg daily for seven days, measured one day after final injection
Description: One day after the final injection, the hearing threshold was measured based on auditory brain stem response, according to the method of Shapiro et al. (Shapiro, S. M., Moller, A. R., Shiu, G. K. Brain-stem auditory evoked potentials in rats with high-dose pentbarbital. (1984) Electroencephalogr. Clin. Neurophysiol. 58, 266-276).

Molecule: Gentamicin [GM, reference compound]
- lethality [1]: killed all of the tested mice within four hours

Molecule: CN(CC(=O)O)NC(=O)C[C@H](N)C[C@@H](O)CN [NM, negamycin]
- percentage of fibers with increased membrane permeability (EBD-positive fibers) (TA muscle fibers): lower in NM-treated mice than in GM-treated mice
- percentage of dystrophin-positive TA muscle fibers (dystrophin [2]; 1.2×10^−5 mol/kg/day subcutaneously for two weeks, FIG. 2): higher than in GM-treated mdx mice
- dystrophin-positive fibers by immunofluorescence staining (dystrophin [2]; TA muscle, 1.2×10^−5 mol/kg subcutaneously every day for two weeks): detected
- lethality [1]: not lethally toxic
- dystrophin expression by immunofluorescence staining (dystrophin [3]): strong fluorescence signals were detected
- dystrophin (427 kDa) band by immunoblotting (dystrophin [4]): a clear band was detected at the position of 427 kDa
- dystrophin expression level restored, relative to normal B10 hind leg muscle (dystrophin [5]; hind leg muscle, immunoblotting, estimated): about 10%
- dystrophin bands by immunoblotting (dystrophin [5]; hind leg muscles (FIG. 3(1) G, H, I), 1.2×10^−5 mol/kg/day for two weeks, intensity lower than positive control B10): dystrophin bands were detected
- hearing loss by auditory brain stem response [6]: not in NM-treated mice
